{
  "source": "ChEMBL document CHEMBL1201862",
  "about": "“PubChem BioAssay data set” (2004)",
  "assay_in_all_cases": "NCI-60 cell line screen, 48 h",
  "key": {"UACC-257": {"tested_on": "UACC-257"}, "SF-268": {"tested_on": "SF-268"}, "SF-539": {"tested_on": "SF-539"}, "OVCAR-3": {"tested_on": "OVCAR-3"}, "HCT-15": {"tested_on": "HCT-15"}, "SW-620": {"tested_on": "SW-620"}, "KM12": {"tested_on": "KM12"}, "HL-60": {"tested_on": "HL-60"}, "TK-10": {"tested_on": "TK-10"}, "MDA-N": {"tested_on": "MDA-N"}, "OVCAR-8": {"tested_on": "OVCAR-8"}, "K562": {"tested_on": "K562"}, "A549": {"tested_on": "A549"}, "NCI-H226": {"tested_on": "NCI-H226"}, "RXF 393": {"tested_on": "RXF 393"}, "OVCAR-4": {"tested_on": "OVCAR-4"}, "SK-MEL-5": {"tested_on": "SK-MEL-5"}, "HCC 2998": {"tested_on": "HCC 2998"}, "HCT-116": {"tested_on": "HCT-116"}, "COLO 205": {"tested_on": "COLO 205"}, "ACHN": {"tested_on": "ACHN"}, "SNB-19": {"tested_on": "SNB-19"}, "MCF7": {"tested_on": "MCF7"}, "HOP-62": {"tested_on": "HOP-62"}, "UO-31": {"tested_on": "UO-31"}, "HOP-92": {"tested_on": "HOP-92"}, "NCI-H460": {"tested_on": "NCI-H460"}, "CCRF-CEM": {"tested_on": "CCRF-CEM"}, "Hs-578T": {"tested_on": "Hs-578T"}, "RPMI-8226": {"tested_on": "RPMI-8226"}, "UACC-62": {"tested_on": "UACC-62"}, "IGROV-1": {"tested_on": "IGROV-1"}, "NCI-H23": {"tested_on": "NCI-H23"}, "MDA-MB-435": {"tested_on": "MDA-MB-435"}, "SK-MEL-2": {"tested_on": "SK-MEL-2"}, "SF-295": {"tested_on": "SF-295"}, "Malme-3M": {"tested_on": "Malme-3M"}, "HT-29": {"tested_on": "HT-29"}, "OVCAR-5": {"tested_on": "OVCAR-5"}, "786-0": {"tested_on": "786-0"}, "BT-549": {"tested_on": "BT-549"}, "CAKI-1": {"tested_on": "CAKI-1"}, "M14": {"tested_on": "M14"}, "SK-MEL-28": {"tested_on": "SK-MEL-28"}, "NCI/ADR-RES": {"tested_on": "NCI/ADR-RES"}, "SK-OV-3": {"tested_on": "SK-OV-3"}, "NCI-H522": {"tested_on": "NCI-H522"}, "U-251": {"tested_on": "U-251"}, "DU-145": {"tested_on": "DU-145"}, "SR": {"tested_on": "SR"}, "LOX IMVI": {"tested_on": "LOX IMVI"}, "SN12C": {"tested_on": "SN12C"}, "PC-3": {"tested_on": "PC-3"}, "EKVX": {"tested_on": "EKVX"}, "T47D": {"tested_on": "T47D"}, "MDA-MB-231": {"tested_on": "MDA-MB-231"}, "A498": {"tested_on": "A498"}, "MOLT-4": {"tested_on": "MOLT-4"}},
  "note": "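96-well plates; 48 h exposure; 5 concentrations. Endpoints by linear interpolation between flanking doses. Not reached: highest tested concentration assigned. GI50 = concentration required for 50% inhibition of growth.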 The source made the active and inactive calls. Cut-off read from the data, not from the text of the source: active = GI50 up to about 1.1 µM and inactive = higher.",
  "data": [
    {"smiles": "CC(C)(C)OC(=O)NC1CCCCC1NC(=O)C(=O)NC1CCCCC1NC(=O)OC(C)(C)C", "note": "(stereo not drawn)", "values": [
      {"measurement": "GI50", "setting": "UACC-257", "value": "> 100 µM (inactive)"},
      {"measurement": "GI50", "setting": "SF-268", "value": "37.2 µM (inactive)"},
      {"measurement": "GI50", "setting": "SF-539", "value": "45.4 µM (inactive)"},
      {"measurement": "GI50", "setting": "OVCAR-3", "value": "> 100 µM (inactive)"},
      {"measurement": "GI50", "setting": "HCT-15", "value": "> 100", "unit": "µM"},
      {"measurement": "GI50", "setting": "SW-620", "value": "> 100 µM (inactive)"},
      {"measurement": "GI50", "setting": "KM12", "value": "> 100 µM (inactive)"},
      {"measurement": "GI50", "setting": "HL-60", "value": "> 100 µM (inactive)"},
      {"measurement": "GI50", "setting": "TK-10", "value": "37.6 µM (inactive)"},
      {"measurement": "GI50", "setting": "MDA-N", "value": "> 100 µM (inactive)"},
      {"measurement": "GI50", "setting": "OVCAR-8", "value": "> 100 µM (inactive)"},
      {"measurement": "GI50", "setting": "K562", "value": "> 100 µM (inactive)"},
      {"measurement": "GI50", "setting": "A549", "value": "> 100 µM (inactive)"},
      {"measurement": "GI50", "setting": "NCI-H226", "value": "> 100 µM (inactive)"},
      {"measurement": "GI50", "setting": "RXF 393", "value": "9.46 µM (inactive)"},
      {"measurement": "GI50", "setting": "OVCAR-4", "value": "> 100 µM (inactive)"},
      {"measurement": "GI50", "setting": "SK-MEL-5", "value": "> 100 µM (inactive)"},
      {"measurement": "GI50", "setting": "HCC 2998", "value": "> 100 µM (inactive)"},
      {"measurement": "GI50", "setting": "HCT-116", "value": "78.2 µM (inactive)"},
      {"measurement": "GI50", "setting": "COLO 205", "value": "> 100 µM (inactive)"},
      {"measurement": "GI50", "setting": "ACHN", "value": "39.1 µM (inactive)"},
      {"measurement": "GI50", "setting": "SNB-19", "value": "28.4 µM (inactive)"},
      {"measurement": "GI50", "setting": "MCF7", "value": "> 100 µM (inactive)"},
      {"measurement": "GI50", "setting": "HOP-62", "value": "19.3 µM (inactive)"},
      {"measurement": "GI50", "setting": "UO-31", "value": "> 100 µM (inactive)"},
      {"measurement": "GI50", "setting": "HOP-92", "value": "13.5 µM (inactive)"},
      {"measurement": "GI50", "setting": "NCI-H460", "value": "> 100 µM (inactive)"},
      {"measurement": "GI50", "setting": "CCRF-CEM", "value": "> 100 µM (inactive)"},
      {"measurement": "GI50", "setting": "Hs-578T", "value": "16.9 µM (inactive)"},
      {"measurement": "GI50", "setting": "RPMI-8226", "value": "> 100 µM (inactive)"},
      {"measurement": "GI50", "setting": "UACC-62", "value": "24 µM (inactive)"},
      {"measurement": "GI50", "setting": "IGROV-1", "value": "> 100 µM (inactive)"},
      {"measurement": "GI50", "setting": "NCI-H23", "value": "> 100 µM (inactive)"},
      {"measurement": "GI50", "setting": "MDA-MB-435", "value": "> 100 µM (inactive)"},
      {"measurement": "GI50", "setting": "SK-MEL-2", "value": "59 µM (inactive)"},
      {"measurement": "GI50", "setting": "SF-295", "value": "29.1 µM (inactive)"},
      {"measurement": "GI50", "setting": "Malme-3M", "value": "> 100 µM (inactive)"},
      {"measurement": "GI50", "setting": "HT-29", "value": "> 100 µM (inactive)"},
      {"measurement": "GI50", "setting": "OVCAR-5", "value": "> 100 µM (inactive)"},
      {"measurement": "GI50", "setting": "786-0", "value": "34.7 µM (inactive)"},
      {"measurement": "GI50", "setting": "BT-549", "value": "53.5 µM (inactive)"},
      {"measurement": "GI50", "setting": "CAKI-1", "value": "43 µM (inactive)"},
      {"measurement": "GI50", "setting": "M14", "value": "> 100 µM (inactive)"},
      {"measurement": "GI50", "setting": "SK-MEL-28", "value": "> 100 µM (inactive)"},
      {"measurement": "GI50", "setting": "NCI/ADR-RES", "value": "> 100 µM (inactive)"},
      {"measurement": "GI50", "setting": "SK-OV-3", "value": "44.2 µM (inactive)"},
      {"measurement": "GI50", "setting": "NCI-H522", "value": "66.5 µM (inactive)"},
      {"measurement": "GI50", "setting": "U-251", "value": "25.9 µM (inactive)"},
      {"measurement": "GI50", "setting": "DU-145", "value": "> 100 µM (inactive)"},
      {"measurement": "GI50", "setting": "SR", "value": "> 100 µM (inactive)"},
      {"measurement": "GI50", "setting": "LOX IMVI", "value": "> 100 µM (inactive)"},
      {"measurement": "GI50", "setting": "SN12C", "value": "> 100 µM (inactive)"},
      {"measurement": "GI50", "setting": "PC-3", "value": "> 100 µM (inactive)"},
      {"measurement": "GI50", "setting": "EKVX", "value": "> 100 µM (inactive)"},
      {"measurement": "GI50", "setting": "T47D", "value": "> 100 µM (inactive)"},
      {"measurement": "GI50", "setting": "MDA-MB-231", "value": "27.2 µM (inactive)"},
      {"measurement": "GI50", "setting": "A498", "value": "32.7 µM (inactive)"},
      {"measurement": "GI50", "setting": "MOLT-4", "value": "> 100 µM (inactive)"}
    ]}
  ]
}
